Assay results taken from US10975057B2, “6-aminopyridin-3-yl pyrazoles as modulators of RORgT” (Janssen Pharmaceutica NV, priority 2018, dated 2021).

What was measured:
[1] = test system: IL-17 production by CD4 T cells; assay: cells; details: Homo sapiens, 72 h, read-out: Human Th17 Assay, IC50 (μM)
Procedure: The human Th17 assay tests the effect of RORγt modulatory compounds on IL-17 production by CD4 T cells under conditions which favor Th17 differentiation. Total CD4^+ T cells were isolated from the peripheral blood mononuclear cells (PBMC) of healthy donors using a CD4^+ T cell isolation kit II, following the manufacturer's instructions (Miltenyi Biotec). […] 50 μL of compound at titrated concentrations in DMSO were added into each well at final DMSO concentration at 0.2%. Cells were incubated for 1 hour, then 50 μL of Th17 cell differentiation medium was added to each well. The final concentrations of antibodies and cytokines (R&D Systems) in differentiation medium were: 3×10^6/mL anti-CD3/CD28 beads (prepared using human T cell activation/expansion kit, Miltenyi Biotec), 10 μg/mL anti-IL4, 10 μg/mL anti-IFNγ, 10 ng/mL IL1β, 10 ng/mL IL23, 50 ng/mL IL6, 3 ng/mL TGFβ and 20 U/mL IL2. Cells were cultured at 37° C. and 5% CO2 for 3 days. Supernatants were collected and the accumulated IL-17 in culture was measured by using MULTI-SPOT® Cytokine Plate following manufacture's instruction (Meso Scale Discovery). The plate was read using Sector Imager 6000, and IL-17 concentration was extrapolated from the standard curve. The IC50s were determined by GraphPad.

[2] = test system: Th17-dependent learned helplessness; details: mice; cited from earlier work
[3] = test system: obese diabetic mice; details: cited from earlier work

Row | Structure (SMILES) | IC50 [1] [µM] | other results
1 | CCn1nc(C(=O)NC[C@]2(O)CC[C@@H](S(C)(=O)=O)CC2)c(C)c1-c1cnc(NC(C)(C)CC(F)(F)F)cc1OC(F)F [Example 1, 5-(4-(Difluoromethoxy)-6-((4,4,4-trifluoro-2-methylbutan-2-yl)amino)pyridin-3-yl)-1-ethyl-N-(((1s,4s)-1-hydroxy-4-(methylsulfonyl)cyclohexyl)methyl)-4-methyl-1H-pyrazole-3-carboxamide] | 0.0066 | 
2 | CCn1nc(C(=O)NC[C@]2(O)CC[C@@H](S(C)(=O)=O)CC2)c(Cl)c1-c1cnc(NC(C)(C)CC(F)(F)F)cc1OC(F)F [Example 15, 4-Chloro-5-(4-(difluoromethoxy)-6-((4,4,4-trifluoro-2-methylbutan-2-yl)amino)pyridin-3-yl)-1-ethyl-N-(((1s,4s)-1-hydroxy-4-(methylsulfonyl)cyclohexyl)methyl)-1H-pyrazole-3-carboxamide] | 0.0062 | 
3 | CCn1nc(C(=O)NC[C@]2(O)CC[C@@H](S(C)(=O)=O)CC2)c(Cl)c1-c1cnc(NC(C)(C)CC(F)(F)F)cc1C(C)C [Example 16, 4-Chloro-1-ethyl-N-(((1s,4s)-1-hydroxy-4-(methylsulfonyl)cyclohexyl)methyl)-5-(4-isopropyl-6-((4,4,4-trifluoro-2-methylbutan-2-yl)amino)pyridin-3-yl)-1H-pyrazole-3-carboxamide] | 0.017 | 
4 | CCc1cc(NC(C)(C)CC(F)(F)F)ncc1-c1c(Cl)c(C(=O)NC[C@]2(O)CC[C@@H](S(C)(=O)=O)CC2)nn1CC [Example 18, 4-Chloro-1-ethyl-5-(4-ethyl-6-((4,4,4-trifluoro-2-methylbutan-2-yl)amino)pyridin-3-yl)-N-(((1s,4s)-1-hydroxy-4-(methylsulfonyl)cyclohexyl)methyl)-1H-pyrazole-3-carboxamide] | 0.0041 | 
5 | CCn1nc(C(=O)NC[C@]2(O)CC[C@@H](S(C)(=O)=O)CC2)c(Cl)c1-c1cnc(NC(C)(C)CC(F)(F)F)cc1OC [Example 79, 4-Chloro-1-ethyl-N-(((1s,4s)-1-hydroxy-4-(methylsulfonyl)cyclohexyl)methyl)-5-(4-methoxy-6-((4,4,4-trifluoro-2-methylbutan-2-yl)amino)pyridin-3-yl)-1H-pyrazole-3-carboxamide] | 0.013 | 
6 | CCn1nc(C(=O)NC[C@]2(O)CC[C@@H](S(C)(=O)=O)CC2)c(Cl)c1-c1cnc(NC(C)(C)CC(F)(F)F)cc1C(F)F [Example 97, 4-Chloro-5-(4-(difluoromethyl)-6-((4,4,4-trifluoro-2-methylbutan-2-yl)amino)pyridin-3-yl)-1-ethyl-N-(((1s,4s)-1-hydroxy-4-(methylsulfonyl)cyclohexyl)methyl)-1H-pyrazole-3-carboxamide] | 0.0033 | 
7 | CCn1nc(C(=O)NC[C@H]2CC[C@H](S(C)(=O)=O)CC2)c(Cl)c1-c1cnc(N[C@H](C)C(F)(F)F)cc1OC [Example 98, 4-Chloro-1-ethyl-5-(4-methoxy-6-(((R)-1,1,1-trifluoropropan-2-yl)amino)pyridin-3-yl)-N-(((1r,4R)-4-(methylsulfonyl)cyclohexyl)methyl)-1H-pyrazole-3-carboxamide] | 0.14 | 
8 | CC(=O)Nc1nc(C)c(S(=O)(=O)Nc2ccc(C(O)(C(F)(F)F)C(F)(F)F)cc2)s1 [SR1001] |  | Th17-dependent learned helplessness [2]: reduced Th17-dependent learned helplessness
9 | CC(=O)N1CCN(Cc2ccc(-c3ccc(C(O)(C(F)(F)F)C(F)(F)F)cc3)cc2)CC1 [SR1555] |  | body weight [3]: reduced body weight; fat mass [3]: significant reduction in fat mass; food intake [3]: modest reduction in food intake; insulin sensitivity [3]: improved insulin sensitivity
